Consider one molecule from EPA's ToxValDB 9.5 (doi:10.2903/j.efsa.2008.146r).

Each structure is given as a SMILES string.

For one data set, the system named is Aphidius rhopalosiphi. The data set is described as follows: LR50; higher = less toxic. The settings on record: acute; duration: 48 hours; mortality.
A further data set deals with Typhlodromus pyri. Kind of data set: LR50; higher = less toxic. The settings on record: acute; duration: 14 days; mortality.
For a further data set, the system named is Canidae. The settings on record: oral, Dog Other, clinical signs.
The subject of a further data set is Coturnix japonica. The settings on record: reproduction developmental.
The next data set deals with Daphnia magna. The settings on record: chronic/long-term; duration: 21 days; reproduction.
In a further data set the test system is Tagia sp. The settings on record: acute; duration: 14 days; mortality.
A further data set has as its system Colinus virginianus. The settings on record: acute, oral, mortality.
The next data set deals with Apis mellifera. The settings on record: acute, mortality.

`C[N+]1(C)CCCCC1.[Cl-]` [1,1-Dimethylpiperidinium chloride]: the LR50 was 1370 g/ha in the data set with Aphidius rhopalosiphi and 1530 g/ha with Typhlodromus pyri. Also, the LC50 with Oncorhynchus mykiss (acute, duration: 96 hours, mortality) is over 100 µg/mL; with Tagia sp. it was 320 mg/kg. For the same molecule, the NOEC in the data set with Oncorhynchus mykiss (chronic/long-term, duration: 28 days, growth) was 100 mg/L; with Coturnix japonica, 933 mg/kg-day; in the data set on Daphnia magna, 12.5 mg/L. The NOAEL in the data set with Canidae (chronic, duration: 12 months) amounted to 19.9 mg/kg-day; with Canidae (subchronic, duration: 3 months), 30.5 mg/kg-day; in the data set on Rattus norvegicus (reproduction developmental, mortality) it was 30 mg/kg-day. The LD50 in the data set with Colinus virginianus (diet) is over 1330 mg/kg-day; with Colinus virginianus, over 2000 mg/kg-day; with Apis mellifera (dermal), over 100 µg/piece; in the data set on Apis mellifera (oral, unspecified), over 107 µg/piece; with Rattus norvegicus (acute, oral, mortality) it was 200 mg/kg-day. The same molecule gave an NOAEC with Rattus norvegicus (reproduction developmental) of 155 mg/kg-day.

As usually defined, the NOAEL is the highest tested level that showed no adverse finding.
